Results as given in patent US20110105544A1, “CARBOXYLIC DERIVATIVES FOR USE IN THE TREATMENT OF CANCER” (priority 2007, published 2011).

Tests used:
human recombinant HDAC 8 = molecular target: T1, human recombinant HDAC 8 (Homo sapiens, UniProt Q9BY41); experiment: HDAC inhibition assay (Fluor de Lys), HDAC8; type: biochemical; settings: inhibitor-protein incubation 0 hours, reaction 3 hours, 37° C.
T1 construct: purchased BPS Bioscience 50008
T1 sequence (Q9BY41 1-377): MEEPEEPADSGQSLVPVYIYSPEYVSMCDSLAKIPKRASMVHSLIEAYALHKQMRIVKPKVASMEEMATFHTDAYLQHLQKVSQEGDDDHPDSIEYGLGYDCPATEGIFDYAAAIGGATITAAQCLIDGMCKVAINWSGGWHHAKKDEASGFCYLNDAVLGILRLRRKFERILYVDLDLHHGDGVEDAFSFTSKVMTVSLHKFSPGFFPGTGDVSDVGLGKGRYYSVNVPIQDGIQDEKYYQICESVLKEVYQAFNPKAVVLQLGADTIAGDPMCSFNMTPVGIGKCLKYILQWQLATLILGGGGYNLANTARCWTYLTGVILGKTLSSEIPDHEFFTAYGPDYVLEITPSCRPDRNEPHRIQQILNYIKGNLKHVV
Description: (§1) All assays were carried out in the assay buffer: 50 mM Tris/Cl, pH 8.0, 137 mM NaCl, 2.7 mM KCl, 1 mM MgCl2).
(§2) Reactions were carried out in a 96-wells microplate (Corning 96 well Flat Bottom Non-binding surface (black) ref. 3651).
(§3) Potential inhibitors were added after five fold serial dilutions in DMSO. Final DMSO concentration in the assay microplate was kept at 2%.
(§4) Afterwards, human recombinant HDAC1, HDAC 2 or HDAC 8 were added up to […] respectively in assay buffer. When necessary, the mixture was incubated at room temperature prior the addition of substrate.
(§5) Total reaction volume of 50 μl. Human recombinant HDACs could be acquired from commercial sources (HDAC1: ref. #50001, BPS Bioscience™; HDAC 2: ref. #50002, BPS Bioscience™; HDAC 8: ref. #50008, BPS Bioscience™).
(§6) Reactions were stopped with 50 μl Developer (KI-105 Fluor de Lys™, BIOMOL®) with 2 μmol/L trichostatin A (TSA, final concentration 1 μmol/L). After 20 minutes at 37° C., fluorescence (excitation 360 nm, emission 460 nm) was measured using an Infinite F200 fluorimeter (Tecan). Background was determined in reactions using substrate in the absence of enzyme.
(§7) IC50 values are defined as the compound concentration at which the deacetylase activity is 50% inhibited. In these assays the following grading was used (I: IC50≦10 μM; II: 10 μM<IC50≦100 μM; III: 100 μM<IC50≦1 mM) The results obtained are summarized in Table 4.

SK-mel-98 (melanoma) = experiment: alamarBlue viability assay, SK-mel-98; type: cell-based; settings: 72 hours
Description: (§8) Additionally, the following cancer cell lines were used:
(§9) Cells were grown in a humidified incubator at 37° C. in 5% CO2.
(§10) Cells were plated in 96-well plates at a density of 6000 cells/well in 100 μl medium 24 h before addition of drugs. They were then added in concentrations from 100 μM to 0.45 nM (each concentration in triplicate). To do so, a drugs-dilution plate at twice the screening concentrations was prepared. 72 hours later, alamarBlue (Biosource, Invitrogen) viability assay was performed following manufacturer's protocol. In brief, alamarBlue diluted in media was added to cells to have a 5% solution. Cells were incubated at 37° C., 3 hours and at room temperature, 30 min. Cells with no drug and, cells with no drug and lysed with triton X-100 were used as controls. Fluorescence was monitored at 530 nm excitation and 590 nm emission wavelengths. Results were quantified using Infinite F200 Microplate Reader (Tecan Group, Ltd.). EC50 were calculated as the dose of drugs required to inhibit cell growth by 50%, with Origin 7.0 computer program.

T98G (glioblastoma) = experiment: alamarBlue viability assay, T98G; type: cell-based; settings: Homo sapiens, 72 hours
Description: as §8, §9, §10

HepG2 (hepatocarcinoma) = experiment: alamarBlue viability assay, HepG2; type: cell-based; settings: Homo sapiens, 72 hours
Description: as §8, §9, §10

MDA-MB-435P (breast) = experiment: alamarBlue viability assay, MDA-MB-435P; type: cell-based; settings: 72 hours
Description: as §8, §9, §10

K562 (lymphoma) = experiment: alamarBlue viability assay, K562; type: cell-based; settings: Homo sapiens, 72 hours
Description: as §8, §9
as §10, with “They were then added in concentrations from 100 μM to 0.45 nM (each concentration in triplicate).” left out

MDA-MB-468 (breast) = experiment: alamarBlue viability assay, MDA-MB-468; type: cell-based; settings: Homo sapiens, 72 hours
Description: as §8, §9, §10

PC3 (prostate) = experiment: alamarBlue viability assay, PC3; type: cell-based; settings: 72 hours
Description: as §8, §9
as §10, with “They were then added in concentrations from 100 μM to 0.45 nM (each concentration in triplicate).” left out

[1] = system: human colon cancer cell line HCT116; experiment: alamarBlue viability assay, HCT116; type: cell-based; settings: HCT-116, 72 hours, dose required to inhibit cell growth by 50%
Description: (§11) The human colon cancer cell line HCT116 and the human breast cancer cell line MCF-7 were from the American Type Culture Collection (ATCC; CCL-247 and HTB-22, respectively).
(§12) The HCT116 cell line was maintained in DMEM GlutaMAX (Invitrogen) supplemented with 10% fetal calf serum and the MCF7 cell line was maintained in RPMI1640 GlutaMAX (Invitrogen) containing 1 mM sodium piruvate and 10% fetal calf serum.
as §9
as §10, with “They were then added in concentrations from 100 μM to 0.45 nM (each concentration in triplicate).” left out

A549 (lung) = experiment: alamarBlue viability assay, A549; type: cell-based; settings: Homo sapiens, 72 hours
Description: as §8, §9, §10

human recombinant HDAC 2 = molecular target: T2, human recombinant HDAC 2 (Homo sapiens, UniProt Q92769); experiment: HDAC inhibition assay (Fluor de Lys), HDAC2; type: biochemical; settings: inhibitor-protein incubation 2 hours, reaction 1 h 30 min, 37° C.
T2 construct: purchased BPS Bioscience 50002
T2 sequence (Q92769 whole entry): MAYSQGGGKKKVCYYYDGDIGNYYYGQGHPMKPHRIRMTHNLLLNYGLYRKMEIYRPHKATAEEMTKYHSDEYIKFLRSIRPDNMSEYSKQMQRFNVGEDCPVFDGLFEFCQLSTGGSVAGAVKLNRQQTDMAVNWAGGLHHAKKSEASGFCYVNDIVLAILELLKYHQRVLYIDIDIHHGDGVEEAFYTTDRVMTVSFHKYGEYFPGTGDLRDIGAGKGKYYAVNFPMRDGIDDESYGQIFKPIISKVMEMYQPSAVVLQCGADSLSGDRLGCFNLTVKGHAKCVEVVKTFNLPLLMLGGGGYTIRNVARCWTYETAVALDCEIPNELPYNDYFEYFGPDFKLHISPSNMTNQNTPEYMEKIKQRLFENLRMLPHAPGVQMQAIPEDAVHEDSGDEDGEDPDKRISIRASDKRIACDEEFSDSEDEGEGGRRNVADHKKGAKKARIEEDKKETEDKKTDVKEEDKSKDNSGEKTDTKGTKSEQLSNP
Description: as §1, §2, §3, §4, §5, §6, §7

NP-9 (pancreas) = experiment: alamarBlue viability assay, NP-9; type: cell-based; settings: 72 hours
Description: The NP-9 cell line from pancreas, was provided by Dr. R. Alemany from Translational Research Laboratory (Institut Catala d'Oncologia). (cf., Cascallò, M. et al., “Ras-dependent Oncolysis with an Adenovirus VAI mutant”, Cancer Research, 2003, 63, 5544-5550). This cells was maintained in DMEM:F12 (Invitrogen) supplemented with 10% fetal calf serum (Invitrogen), L-glutamine […] (Invitrogen), pyruvate […] (Invitrogen).
as §9
as §10, with “EC50 were calculated as the dose of drugs required to inhibit cell growth by 50%, with Origin 7.0 computer program.” left out

Hep3B (hepatocarcinoma) = experiment: alamarBlue viability assay, Hep3B; type: cell-based; settings: Homo sapiens, 72 hours
Description: as §8, §9
as §10, with “They were then added in concentrations from 100 μM to 0.45 nM (each concentration in triplicate).” left out

U87 (glioblastoma) = experiment: alamarBlue viability assay, U87; type: cell-based; settings: 72 hours
Description: as §8, §9, §10

human recombinant HDAC1 = molecular target: T3, human recombinant HDAC1 (Homo sapiens, UniProt Q13547); experiment: HDAC inhibition assay (Fluor de Lys), HDAC1; type: biochemical; settings: inhibitor-protein incubation 0 hours, reaction 3 hours, 25° C.
T3 construct: purchased BPS Bioscience 50001
T3 sequence (Q13547 whole entry): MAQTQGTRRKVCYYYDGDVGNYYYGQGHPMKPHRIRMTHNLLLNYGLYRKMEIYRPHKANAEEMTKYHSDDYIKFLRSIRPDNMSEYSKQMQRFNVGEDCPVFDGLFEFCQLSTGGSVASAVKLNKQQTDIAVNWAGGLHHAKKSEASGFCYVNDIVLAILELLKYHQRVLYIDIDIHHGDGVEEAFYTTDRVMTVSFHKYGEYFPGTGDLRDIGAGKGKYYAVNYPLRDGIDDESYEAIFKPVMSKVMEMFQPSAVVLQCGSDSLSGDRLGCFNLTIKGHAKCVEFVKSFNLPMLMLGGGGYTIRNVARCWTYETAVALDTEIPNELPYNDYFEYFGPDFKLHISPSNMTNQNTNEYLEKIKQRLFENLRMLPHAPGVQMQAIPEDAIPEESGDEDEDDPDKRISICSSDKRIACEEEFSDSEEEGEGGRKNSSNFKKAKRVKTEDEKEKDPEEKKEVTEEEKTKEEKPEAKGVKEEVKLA
Description: as §1, §2, §3, §4, §5, §6
(§13) IC50 values are defined as the compound concentration at which the deacetylase activity is 50% inhibited. […]

[2] = system: human breast cancer cell line MCF-7; experiment: alamarBlue viability assay, MCF-7; type: cell-based; settings: MCF7, 72 hours, dose required to inhibit cell growth by 50%
Description: as §11, §12, §9
as §10, with “They were then added in concentrations from 100 μM to 0.45 nM (each concentration in triplicate).” left out

HDACs = experiment: HDAC inhibition assays, isoform not specified; type: biochemical, human; settings: result in words
Description: as §1, §2, §3, §4, §5, §6, §13

IC50 (human recombinant HDAC 8) [µM] | EC50 (SK-mel-98 (melanoma)) [µM] | EC50 (T98G (glioblastoma)) [µM] | EC50 (HepG2 (hepatocarcinoma)) [µM] | EC50 (MDA-MB-435P (breast)) [µM] | EC50 (K562 (lymphoma)) [µM] | EC50 (MDA-MB-468 (breast)) [µM] | EC50 (PC3 (prostate)) [µM] | EC50 [1] [µM] | EC50 (A549 (lung)) [µM] | IC50 (human recombinant HDAC 2) [µM] | EC50 (Hep3B (hepatocarcinoma)) [µM] | EC50 (U87 (glioblastoma)) [µM] | IC50 (human recombinant HDAC1) [µM] | EC50 [2] [µM] | Compound | EC50 (NP-9 (pancreas)) [µM] | inhibition of the target of these compounds (i.e. HDACs) (HDACs)
10 to 100 | 170 | 118 | 140 | 125 | 157 | 55.4 | 168 | 98 | 104 | 10 to 100 | 99.7 | 105 | – | – | Cc1ccc(NS(=O)(=O)c2cccc(CCCC(CCc3ccccc3)C(=O)O)c2)cc1 (stereo not shown) [Example 36] | 41 | –
10 to 100 | – | – | – | 210 | 2.55 | 87 | 336 | 75 | – | 100 to 1000 | – | – | – | – | COc1ccc(NS(=O)(=O)c2cccc(CCCC(CCc3ccccc3)C(=O)O)c2)cc1OC (stereo not shown) [Example 43, 5-(3-{[(3,4-dimethoxyphenyl)amino]sulfonyl}phenyl)-2-(2-phenylethyl)pentanoic acid] | – | –
10 to 100 | – | – | – | – | – | – | – | 644 | – | 100 to 1000 | – | – | 100 to 1000 | – | CNS(=O)(=O)c1cccc(CCCC(CCc2ccccc2)C(=O)O)c1 (stereo not shown) [Example 41, 5-(3-[(Methylamino)sulfonyl]phenyl)-2-(2-phenylethyl)pentanoic acid] | – | –
100 to 1000 | – | – | – | 242 | 472 | 364 | 364 | 636 | – | – | – | – | – | 1060 | O=C(O)C(CCc1ccccc1)Cc1ccccc1 (stereo not shown) [Example 9, 2-Benzyl-4-phenylbutanoic acid] | – | –
10 to 100 | – | – | – | 253 | – | – | – | 177 | – | 100 to 1000 | – | – | 100 to 1000 | 268 | O=C(O)C(CCCc1ccccc1)CCc1ccccc1 (stereo not shown) [Example 11, 5-Phenyl-2-(2-phenylethyl)pentanoic acid] | – | –
100 to 1000 | – | – | – | – | – | – | – | 5000 | – | – | – | – | – | 5000 | CNS(=O)(=O)c1ccc(CC(CCc2ccccc2)C(=O)O)cc1 (stereo not shown) [Example 12, 2-{4-[(methylamino)sulfonyl]benzyl}-4-phenylbutanoic acid] | – | clear inhibition
≤ 10 | 78.3 | 118 | 103 | 52 | – | 99.8 | 55.6 | 54 | 62.3 | 10 to 100 | 107 | 43 | – | – | CCc1ccc(CCC(CCCc2ccc(S(=O)(=O)Nc3ccccc3)cc2)C(=O)O)cc1 (stereo not shown) [Example 46, 5-[4-(Anilinosulfonyl)phenyl]-2-[2-(4-ethylphenyl)ethyl]pentanoic acid] | 102 | –
